Data published in patent US12268723B2, “Peptidomimetics for the treatment of coronavirus and picorna virus infections” (priority 2019, dated 2025).
Read-outs that look alike come from different tables or passages of the source.

What was measured:
Assay type in all cases: cell-based
HCoV (OC43) = experiment: In vitro assay for HCoV (OC43), virus yield reduction in Huh7 cells; settings: for inhibition at 10 µM: Betacoronavirus 1, OC43, Huh-7, 10 μM
Excerpt: In order to determine the potential effect of each selected compound against in vitro replication of SARS-CoV-2 in Vero cells or HCoV (OC43) in Huh7 cells, a confluent cell monolayer in a 96-wells cell culture microplate can be infected at a multiplicity of infection (MOI) of 0.1 and treated with a maximum non-toxic concentration (MNTC) of each compound. To assess the antiviral activity, a virus yield reduction assay using specific qRT-PCR for each virus can be performed.
Dose-Dependent Antiviral Assay. The antiviral effect of each compound selected through the antiviral evaluation assay can be further confirmed by virus yield reduction assay using the optimized qRT-PCR by measuring the RNA copy number for each virus in the supernatant of treated-infected cells. A positive control, such as remdesivir, can be used for each assay.
Statistical analysis. The half-maximal effective concentration (EC50) and the concentration with 90% of inhibitory effect (EC90) can be calculated using GraphPad PRISM for Windows, version 5 (GraphPad Software Inc., San Diego, CA, 2005) or the Chou and Talalay Method.
These methods were used to evaluate certain of the compounds described herein.

SARS-CoV-2 = experiment: microbe, parasite or virus in culture; settings: for inhibition at 10 µM: read-out: SARS-CoV-2 Inhibition at 10 μM (%)
[1] = Cellular toxicity assay in CEM cells; settings: human, CEM lymphoblastoid cells, read-out: Cytotoxicity, CC50, CEM
Protocol: (§1) The toxicity of the compounds was assessed in Vero, human PBM, CEM (human lymphoblastoid), MT-2, and HepG2 cells, as described previously (see Schinazi R. F., Sommadossi J.-P., Saalmann V., Cannon D. L., Xie M.-Y., Hart G. C., Smith G. A. & Hahn E. F. Antimicrob. Agents Chemother. 1990, 34, 1061-67). Cycloheximide was included as positive cytotoxic control, and untreated cells exposed to solvent were included as negative controls. The cytotoxicity CC50 was obtained from the concentration-response curve using the median effective method described previously (see Chou T.-C. & Talalay P. Adv. Enzyme Regul. 1984, 22, 27-55; Belen'kii M. S. & Schinazi R. F. Antiviral Res. 1994, 25, 1-11).

[2] = Cellular toxicity assay in Huh7 cells; settings: human, read-out: Cytotoxicity, CC50, Huh7
[3] = Cellular toxicity assay in Vero cells; settings: African green monkey, read-out: Cytotoxicity, CC50, VERO
Protocol: as §1

[4] = tested on: human rhabdomyosarcoma (RD) cell line; experiment: Cytotoxicity (MTS) in RD cells
Protocol: Compounds are tested for cytotoxicity using a MTS (3-(4,5-dimethylthiazol-2-yl)-5-(3-carboxymethoxyphenyl)-2-(4-sulfophenyl)-2H-tetrazolium) method and the CC50 (IC50) values (cytotoxic concentrations of drug required to reduce cell viability by 50%) are determined for each test compound in human rhabdomyosarcoma (RD) cell line. In addition, the maximum non-toxic concentrations (MNTC) are also determined for each compound. To avoid potential drug toxicity that would interfere with viral cytopathic effect (CPE), compounds are evaluated at nontoxic concentrations. The resultant inhibitory effect of each test compound is calculated as a percentage of decrease in EV-71 CPE. Briefly, a monolayer of RD cells is prepared in a 96-well plates. The cells are then infected with 1 MOI of EV-71 (BrCr strain) followed by treatment with a single non-toxic dose of each compound in triplicate. The vehicle control wells are treated with 0.1% DMSO diluted in the working media. […] The dose-response antiviral activity of each compound is determined by a virus yield reduction assay method. Briefly, confluent monolayers of RD cells in 96-wells microplate are infected with 0.1 MOI of EV-71 followed by treatment with compounds. […] Quantitative PCR measurement was performed using StepOnePlus real time PCR system ([…]) according to manufacturer's protocol.

[5] = tested on: Enterovirus EV-71 (BrCr strain); experiment: Anti-enterovirus activity, EV-71 virus yield reduction (qRT-PCR) in RD cells; settings: 0.1 MOI, 2 days post-treatment
Protocol: Compounds are tested for cytotoxicity using a MTS (3-(4,5-dimethylthiazol-2-yl)-5-(3-carboxymethoxyphenyl)-2-(4-sulfophenyl)-2H-tetrazolium) method and the CC50 (IC50) values (cytotoxic concentrations of drug required to reduce cell viability by 50%) are determined for each test compound in human rhabdomyosarcoma (RD) cell line. In addition, the maximum non-toxic concentrations (MNTC) are also determined for each compound. To avoid potential drug toxicity that would interfere with viral cytopathic effect (CPE), compounds are evaluated at nontoxic concentrations. The resultant inhibitory effect of each test compound is calculated as a percentage of decrease in EV-71 CPE. Briefly, a monolayer of RD cells is prepared in a 96-well plates. The cells are then infected with 1 MOI of EV-71 (BrCr strain) followed by treatment with a single non-toxic dose of each compound in triplicate. The vehicle control wells are treated with 0.1% DMSO diluted in the working media. The plate is then incubated for 48 h at which time the virus-control wells produced detectable CPE. To determine the probable CPE inhibitory effect of test compounds, an MTS assay is performed and effective compounds are chosen for further studies to identify the potency of the compounds and their concentration-dependent manner. The dose-response antiviral activity of each compound is determined by a virus yield reduction assay method. Briefly, confluent monolayers of RD cells in 96-wells microplate are infected with 0.1 MOI of EV-71 followed by treatment with compounds. Effective compounds are further quantified and confirmed with a virus-yield-reduction assay using an optimized in house qRT-PCR to determine the EV-71 RNA copy number after 2 days post-treatment from collected supernatants. qRT-PCR is performed using the EV-71 specific probe/primer mix and qScript-Tough master mix (Quantibio, USA). Quantitative PCR measurement was performed using StepOnePlus real time PCR system ([…]) according to manufacturer's protocol. The median effective concentration (EC50) and the concentration with 90% of inhibitory effect (EC90) are calculated using GraphPad PRISM for Windows, version 5 (GraphPad Software Inc., San Diego, CA, 2005) as the means±standard deviation (SD) of the mean from triplicate assay from three independent experiments.

[6] = Severe acute respiratory syndrome coronavirus 2, Vero
[7] = Severe acute respiratory syndrome coronavirus 2, 10 μM, Vero cells

Row | Compound | inhibition at 10 µM (HCoV (OC43)) | inhibition at 10 µM (SARS-CoV-2; [6]) | inhibition at 10 µM (SARS-CoV-2; [7]) | further results
1 | CC(C)C[C@H](NC(=O)[C@H](Cc1cccc2ccccc12)NC(=O)OCc1ccccc1)C(=O)N[C@@H](C[C@@H]1CCCNC1=O)C(O)S(=O)(=O)O (stereo partly drawn) [Compound 37, Sodium (5S,8S, 11S)-12-hydroxy-8-isobutyl-5-(naphthalen-1-ylmethyl)-3,6,9-trioxo-11-(((S)-2-oxopiperidin-3-yl)methyl)-1-phenyl-2-oxa-4,7,10-triazadodecane-12-sulfonate] | 99.9% | 99.9% | – | EC50 (SARS-CoV-2; Severe acute respiratory syndrome coronavirus 2, Vero cells, unit inferred, read-out: Activity against SARS-CoV-2 EC50): 0.3 µM; EC90 (SARS-CoV-2; Severe acute respiratory syndrome coronavirus 2, Vero cells, unit inferred, read-out: Activity against SARS-CoV-2 EC90): 4.5 µM
2 | CC(C)CC(NC(=O)[C@H](Cc1cccc2ccccc12)NC(=O)OCc1ccccc1)C(=O)N[C@@H](C[C@@H]1CCNC1=O)C1OCCO1 (stereo partly shown) [Compound 136] | 99.3% | 99.8% | – | –
3 | CC(C)C[C@H](NC(=O)[C@H](Cc1cccc2ccccc12)NC(=O)OCc1ccccc1)C(=O)N[C@@H](C[C@@H]1CCCNC1=O)C(O)C(F)(F)F (stereo partly drawn) [Compound 38, Benzyl ((2S)-1-(((2S)-4-methyl-1-oxo-1-(((2S)-4,4,4-trifluoro-3-hydroxy-1-((S)-2-oxopiperidin-3-yl)butan-2-yl)amino)pentan-2-yl)amino)-3-(naphthalen-1-yl)-1-oxopropan-2-yl)carbamate] | 95% | – | 85.1% | CC50 [1]: 6 µM
4 | CCOC(=O)/C=C/[C@H](C[C@@H]1CCCNC1=O)NC(=O)C(CC(C)C)NC(=O)[C@H](Cc1cccc2ccccc12)NC(=O)c1cc(C)on1 (stereo partly shown) [Compound 44] | 99.7% | 99.5% | – | –
5 | CC(C)C[C@H](NC(=O)[C@H](Cc1cccc2ccccc12)NC(=O)OCc1ccccc1)C(=O)N[C@@H](C[C@@H]1CCCNC1=O)[C@H](O)C#N [Compound 129, benzyl ((S)-1-(((S)-1-(((1S,2S)-1-cyano-1-hydroxy-3-((S)-2-oxopiperidin-3-yl)propan-2-yl)amino)-4-methyl-1-oxopentan-2-yl)amino)-3-(naphthalen-1-yl)-1-oxopropan-2-yl)carbamate] | – | – | – | OC43 Inhibition at 10 μM (%) (HCoV (OC43); 10 μM): 99.9%; SARS-CoV-2 Inhibition at 10 μM (%) (SARS-CoV-2; 10 μM, Vero cells): 99.9%
6 | CC(C)C[C@H](NC(=O)[C@H](Cc1ccc(F)cc1)NC(=O)OCc1ccccc1)C(=O)N[C@H](C=O)C[C@@H]1CCCNC1=O [Compound 35, Benzyl ((S)-3-(4-fluorophenyl)-1-(((S)-4-methyl-1-oxo-1-(((S)-1-oxo-3-((S)-2-oxopiperidin-3-yl)propan-2-yl)amino)pentan-2-yl)amino)-1-oxopropan-2-yl)carbamate] | 99.9% | – | 99.8% | CC50 [2]: 60 µM; CC50 [3]: > 100 µM
7 | CC(C)C[C@H](NC(=O)[C@H](Cc1cccc2ccccc12)NC(=O)OCc1ccccc1)C(=O)N[C@H](/C=C(\C#N)C(N)=O)C[C@@H]1CCCNC1=O [Compound 36, Benzyl ((S)-1-(((S)-1-(((S,E)-5-amino-4-cyano-5-oxo-1-((S)-2-oxopiperidin-3-yl)pent-3-en-2-yl)amino)-4-methyl-1-oxopentan-2-yl)amino)-3-(naphthalen-1-yl)-1-oxopropan-2-yl)carbamate] | 99.9% | – | 99.8% | –
8 | Cc1cc(C(=O)N[C@@H](Cc2cccc3ccccc23)C(=O)N[C@@H](CC(C)C)C(=O)NC(C=O)C[C@@H]2CCCNC2=O)no1 (stereo partly shown) | – | – | – | CC50 [4]: > 100 µM; EC50 ([5]; read-out: EC50 against Enterovirus EV-71 (BrCr strain)): 0.0085 µM; EC90 ([5]; read-out: EC90 against Enterovirus EV-71 (BrCr strain)): 0.0214 µM
